Experimental data: ChEMBL document CHEMBL1126913, “A homologous series of permanently charged 1,4-dihydropyridines: novel probes designed to localize drug binding sites on ion channels” (J Med Chem, 1993)

Biological target: Voltage-dependent L-type calcium channel subunit alpha-1C (Rattus norvegicus, UniProt P22002)
Assay: Inhibition of [3H](+)-PN200-110 binding to L-type calcium channel 1,4-DHP binding site of rat ventricular myocytes
Assay type: cell-based, Ventricular myocyte

Chain of Voltage-dependent L-type calcium channel subunit alpha-1C (P22002 whole entry): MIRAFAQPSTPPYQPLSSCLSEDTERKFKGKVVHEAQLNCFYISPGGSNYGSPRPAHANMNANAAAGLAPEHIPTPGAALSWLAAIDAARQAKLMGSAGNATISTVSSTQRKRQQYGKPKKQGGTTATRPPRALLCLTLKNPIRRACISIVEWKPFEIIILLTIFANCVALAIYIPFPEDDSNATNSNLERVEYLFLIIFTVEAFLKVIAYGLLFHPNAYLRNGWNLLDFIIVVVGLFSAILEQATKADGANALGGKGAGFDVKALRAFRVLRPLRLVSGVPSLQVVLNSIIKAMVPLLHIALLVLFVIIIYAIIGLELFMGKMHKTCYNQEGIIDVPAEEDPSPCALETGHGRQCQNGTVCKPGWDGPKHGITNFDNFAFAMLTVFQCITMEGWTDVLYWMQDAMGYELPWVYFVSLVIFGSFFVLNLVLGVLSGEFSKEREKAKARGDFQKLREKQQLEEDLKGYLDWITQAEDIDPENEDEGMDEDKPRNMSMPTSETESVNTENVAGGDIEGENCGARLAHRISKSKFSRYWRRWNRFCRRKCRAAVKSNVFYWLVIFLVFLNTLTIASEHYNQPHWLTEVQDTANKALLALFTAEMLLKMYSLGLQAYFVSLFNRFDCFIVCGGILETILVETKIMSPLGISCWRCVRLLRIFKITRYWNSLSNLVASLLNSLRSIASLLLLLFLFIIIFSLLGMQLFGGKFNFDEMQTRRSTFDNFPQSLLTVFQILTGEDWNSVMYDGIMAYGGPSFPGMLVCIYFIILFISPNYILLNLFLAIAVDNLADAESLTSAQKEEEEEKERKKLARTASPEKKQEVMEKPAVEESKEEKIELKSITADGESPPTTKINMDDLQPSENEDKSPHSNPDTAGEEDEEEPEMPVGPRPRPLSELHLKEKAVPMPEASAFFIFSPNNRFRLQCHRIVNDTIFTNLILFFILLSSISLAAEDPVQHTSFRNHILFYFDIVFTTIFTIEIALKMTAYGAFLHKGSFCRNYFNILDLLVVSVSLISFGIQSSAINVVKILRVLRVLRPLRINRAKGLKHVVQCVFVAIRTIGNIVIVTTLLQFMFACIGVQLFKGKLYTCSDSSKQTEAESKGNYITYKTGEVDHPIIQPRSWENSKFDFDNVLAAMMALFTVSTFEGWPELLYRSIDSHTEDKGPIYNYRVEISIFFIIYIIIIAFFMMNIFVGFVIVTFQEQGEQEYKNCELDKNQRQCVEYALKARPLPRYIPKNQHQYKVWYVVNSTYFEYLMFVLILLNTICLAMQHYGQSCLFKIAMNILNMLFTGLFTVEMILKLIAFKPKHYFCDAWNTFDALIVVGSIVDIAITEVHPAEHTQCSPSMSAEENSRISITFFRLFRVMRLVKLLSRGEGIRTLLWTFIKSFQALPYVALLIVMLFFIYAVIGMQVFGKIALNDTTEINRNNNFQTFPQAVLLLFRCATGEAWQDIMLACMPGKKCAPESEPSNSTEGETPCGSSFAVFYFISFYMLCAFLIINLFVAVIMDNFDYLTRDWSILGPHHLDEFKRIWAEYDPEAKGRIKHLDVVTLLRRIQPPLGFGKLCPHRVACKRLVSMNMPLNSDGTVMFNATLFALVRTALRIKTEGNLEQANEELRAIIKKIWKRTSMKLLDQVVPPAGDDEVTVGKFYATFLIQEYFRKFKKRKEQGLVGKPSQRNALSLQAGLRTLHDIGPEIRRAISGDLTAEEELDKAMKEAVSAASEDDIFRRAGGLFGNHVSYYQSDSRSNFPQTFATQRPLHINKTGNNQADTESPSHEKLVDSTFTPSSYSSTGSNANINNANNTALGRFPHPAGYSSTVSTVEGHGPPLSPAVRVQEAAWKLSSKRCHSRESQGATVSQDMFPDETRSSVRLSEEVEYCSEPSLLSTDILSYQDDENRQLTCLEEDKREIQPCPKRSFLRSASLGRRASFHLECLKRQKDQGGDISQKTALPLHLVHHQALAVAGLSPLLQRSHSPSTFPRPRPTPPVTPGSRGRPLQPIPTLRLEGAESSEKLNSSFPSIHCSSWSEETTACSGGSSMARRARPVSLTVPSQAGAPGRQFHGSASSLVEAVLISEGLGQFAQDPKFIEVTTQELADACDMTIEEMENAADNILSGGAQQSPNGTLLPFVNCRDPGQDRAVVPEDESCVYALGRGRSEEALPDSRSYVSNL

| Structure (SMILES) | Ki [nM] |
| --- | --- |
| COC(=O)C1=C(C)NC(C)=C(C(=O)OCC[N+](C)(C)C)C1c1ccccc1C(F)(F)F (configuration not stated) | 33.2 |
| CCCCCCCCCCCCCCOC(=O)C1=C(C)NC(C)=C(C(=O)OC)C1c1ccccc1C(F)(F)F (configuration not stated) | 15.7 |
